These are literature values, as cited in US11491200B2, “Herbal compositions and methods for the prevention and treatment of nail infections” (Produits Naturels Mondias Inc., priority 2016, dated 2022).

The series relates to onychomycosis. To be noted: mild-to-moderate onychomycosis; versus 3% for placebo.

In the case of `C=C1CCN([C@H](C)[C@](O)(Cn2cncn2)c2ccc(F)cc2F)CC1` [Jublia], the efficacy is listed as 17%.
